Data set [1] has as its target T1, Glucocorticoid receptor (Homo sapiens, UniProt P04150).
T1 sequence (P04150 whole entry): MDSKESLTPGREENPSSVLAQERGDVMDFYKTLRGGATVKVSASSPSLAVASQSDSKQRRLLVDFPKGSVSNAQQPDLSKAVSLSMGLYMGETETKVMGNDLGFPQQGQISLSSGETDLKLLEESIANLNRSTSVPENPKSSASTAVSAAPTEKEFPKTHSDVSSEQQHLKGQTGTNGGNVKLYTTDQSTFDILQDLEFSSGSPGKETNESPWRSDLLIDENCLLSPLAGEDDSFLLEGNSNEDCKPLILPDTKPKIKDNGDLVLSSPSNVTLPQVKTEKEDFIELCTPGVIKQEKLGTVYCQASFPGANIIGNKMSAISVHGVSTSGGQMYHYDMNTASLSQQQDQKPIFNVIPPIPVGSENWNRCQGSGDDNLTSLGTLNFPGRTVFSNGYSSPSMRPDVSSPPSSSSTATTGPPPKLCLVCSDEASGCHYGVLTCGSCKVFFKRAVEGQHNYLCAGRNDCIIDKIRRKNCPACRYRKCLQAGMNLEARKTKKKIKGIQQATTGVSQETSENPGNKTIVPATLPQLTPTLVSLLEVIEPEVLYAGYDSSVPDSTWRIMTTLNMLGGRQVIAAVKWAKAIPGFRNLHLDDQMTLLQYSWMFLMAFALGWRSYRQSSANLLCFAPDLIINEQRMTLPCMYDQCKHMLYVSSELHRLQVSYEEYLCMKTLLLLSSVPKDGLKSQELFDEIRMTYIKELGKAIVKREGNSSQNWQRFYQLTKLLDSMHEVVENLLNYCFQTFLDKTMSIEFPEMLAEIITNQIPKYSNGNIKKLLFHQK
Kind of data set: Agonist activity at glucocorticoid receptor in human fibroblast assessed as inhibition of IL-1-beta-induced IL6 production treated 1 hr before IL1-beta challenge measured after 24 hrs by transrepression assay. Format: functional.

Data set [2] concerns the target T1, Glucocorticoid receptor. Kind of data set: Agonist activity at glucocorticoid receptor in human MDA-kb2 cells transfected with MMTV-LUC assessed as induction of MMTV-LTR/promoter linked LUC gene by luciferase transactivation assay. Format: functional, cell-based.
The target of data set [3] is T1, Glucocorticoid receptor.
Description: Binding affinity to human glucocorticoid receptor by fluorescence polarization competitive binding assay
Data set [4] can be described thus: Inhibition of NMDA receptor at 1 uM.
In data set [5] the target is Histamine H1 receptor (Homo sapiens) (UniProt P35367). Kind of data set: Inhibition of histamine H1 receptor at 1 uM.
Chain of Histamine H1 receptor (Homo sapiens) (P35367 whole entry): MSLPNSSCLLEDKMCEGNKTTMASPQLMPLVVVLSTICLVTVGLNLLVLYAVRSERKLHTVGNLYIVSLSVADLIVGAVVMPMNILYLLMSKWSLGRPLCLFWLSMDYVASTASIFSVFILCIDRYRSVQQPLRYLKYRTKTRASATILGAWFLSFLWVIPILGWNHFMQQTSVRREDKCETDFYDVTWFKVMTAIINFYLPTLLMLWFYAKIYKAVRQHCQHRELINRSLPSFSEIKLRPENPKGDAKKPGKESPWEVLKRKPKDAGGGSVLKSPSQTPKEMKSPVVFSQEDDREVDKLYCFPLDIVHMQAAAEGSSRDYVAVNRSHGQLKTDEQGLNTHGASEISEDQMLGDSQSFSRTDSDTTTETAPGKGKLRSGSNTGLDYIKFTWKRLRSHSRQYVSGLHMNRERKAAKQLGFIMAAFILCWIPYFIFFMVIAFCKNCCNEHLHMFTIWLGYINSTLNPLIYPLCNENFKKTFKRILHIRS
The nature of data set [6]: Inhibition of central imidazoline I2 receptor at 1 uM.
The target in data set [7] is T2, Muscarinic acetylcholine receptor M2 (Homo sapiens) (UniProt P08172).
T2 sequence (whole entry): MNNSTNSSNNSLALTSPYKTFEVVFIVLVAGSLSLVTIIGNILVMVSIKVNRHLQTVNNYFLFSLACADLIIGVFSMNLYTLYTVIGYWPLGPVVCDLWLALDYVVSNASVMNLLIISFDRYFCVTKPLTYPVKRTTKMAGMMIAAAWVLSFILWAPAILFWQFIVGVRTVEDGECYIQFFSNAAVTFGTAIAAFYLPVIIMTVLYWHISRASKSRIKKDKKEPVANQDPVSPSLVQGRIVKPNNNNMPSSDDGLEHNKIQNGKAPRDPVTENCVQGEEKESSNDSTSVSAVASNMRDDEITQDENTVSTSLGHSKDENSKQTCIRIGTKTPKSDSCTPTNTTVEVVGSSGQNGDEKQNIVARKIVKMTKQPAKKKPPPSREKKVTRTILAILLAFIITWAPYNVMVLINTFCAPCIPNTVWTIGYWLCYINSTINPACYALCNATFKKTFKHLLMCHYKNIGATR
Kind of data set: Inhibition of muscarinic M2 receptor at 1 uM.

Data set [8] deals with Muscarinic acetylcholine receptor M3 (Homo sapiens) (UniProt P20309). Kind of data set: Inhibition of muscarinic M3 receptor at 1 uM.
Chain of Muscarinic acetylcholine receptor M3 (Homo sapiens) (P20309 whole entry, looked up): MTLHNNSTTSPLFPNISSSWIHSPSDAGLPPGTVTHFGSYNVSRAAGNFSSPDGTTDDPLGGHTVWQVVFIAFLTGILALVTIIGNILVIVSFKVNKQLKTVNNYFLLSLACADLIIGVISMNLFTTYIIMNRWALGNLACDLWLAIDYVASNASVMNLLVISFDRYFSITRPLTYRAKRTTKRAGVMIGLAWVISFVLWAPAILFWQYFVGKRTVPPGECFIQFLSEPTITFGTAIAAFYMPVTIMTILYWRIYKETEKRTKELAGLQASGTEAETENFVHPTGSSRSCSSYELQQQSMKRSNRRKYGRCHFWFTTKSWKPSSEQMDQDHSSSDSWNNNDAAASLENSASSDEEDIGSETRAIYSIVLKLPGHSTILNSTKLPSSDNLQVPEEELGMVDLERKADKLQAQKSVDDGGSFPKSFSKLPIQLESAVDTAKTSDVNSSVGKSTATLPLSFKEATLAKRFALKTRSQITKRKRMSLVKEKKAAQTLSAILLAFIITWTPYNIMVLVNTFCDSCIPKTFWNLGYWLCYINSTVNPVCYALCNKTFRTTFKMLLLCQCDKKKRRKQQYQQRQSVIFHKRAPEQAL
Data set [9] can be described thus: Inhibition of nicotinic acetylcholine receptor at 1 uM.
A short description of data set [10]: Inhibition of nicotinic bungarotoxin-sensitive acetylcholine receptor at 1 uM.
Data set [11] has as its target Mu-type opioid receptor (Homo sapiens) (UniProt P35372). Kind of data set: Inhibition of mu opioid receptor at 1 uM.
Data set [12] can be described thus: Inhibition of ATP-sensitive potassium channel at 1 uM.
Data set [13] deals with Prostaglandin E2 receptor EP4 subtype (Homo sapiens) (UniProt P35408). In words: Inhibition of prostanoid EP4 receptor at 1 uM.
Data set [14] in a line: Inhibition of rolipram binding site at 1 uM.
The target of data set [15] is Sigma non-opioid intracellular receptor 1 (Homo sapiens) (UniProt Q99720). In words: Inhibition of sigma 1 receptor at 1 uM.
Chain of Sigma non-opioid intracellular receptor 1 (Homo sapiens) (Q99720 whole entry): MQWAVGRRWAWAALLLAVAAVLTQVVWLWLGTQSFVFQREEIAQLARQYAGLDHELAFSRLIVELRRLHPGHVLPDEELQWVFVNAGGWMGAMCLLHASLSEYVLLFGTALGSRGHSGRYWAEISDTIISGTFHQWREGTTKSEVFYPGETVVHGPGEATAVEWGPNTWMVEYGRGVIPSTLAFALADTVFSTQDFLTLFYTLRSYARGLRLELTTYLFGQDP
Data set [16] is described as follows: Inhibition of sigma 2 receptor at 1 uM.
Data set [17] is described as follows: Inhibition of sodium channel site 2 at 1 uM.
Data set [18] deals with Sodium-dependent noradrenaline transporter (Homo sapiens) (UniProt P23975). Kind of data set: Inhibition of norepinephrine transporter at 1 uM.
Chain of Sodium-dependent noradrenaline transporter (Homo sapiens) (P23975 whole entry): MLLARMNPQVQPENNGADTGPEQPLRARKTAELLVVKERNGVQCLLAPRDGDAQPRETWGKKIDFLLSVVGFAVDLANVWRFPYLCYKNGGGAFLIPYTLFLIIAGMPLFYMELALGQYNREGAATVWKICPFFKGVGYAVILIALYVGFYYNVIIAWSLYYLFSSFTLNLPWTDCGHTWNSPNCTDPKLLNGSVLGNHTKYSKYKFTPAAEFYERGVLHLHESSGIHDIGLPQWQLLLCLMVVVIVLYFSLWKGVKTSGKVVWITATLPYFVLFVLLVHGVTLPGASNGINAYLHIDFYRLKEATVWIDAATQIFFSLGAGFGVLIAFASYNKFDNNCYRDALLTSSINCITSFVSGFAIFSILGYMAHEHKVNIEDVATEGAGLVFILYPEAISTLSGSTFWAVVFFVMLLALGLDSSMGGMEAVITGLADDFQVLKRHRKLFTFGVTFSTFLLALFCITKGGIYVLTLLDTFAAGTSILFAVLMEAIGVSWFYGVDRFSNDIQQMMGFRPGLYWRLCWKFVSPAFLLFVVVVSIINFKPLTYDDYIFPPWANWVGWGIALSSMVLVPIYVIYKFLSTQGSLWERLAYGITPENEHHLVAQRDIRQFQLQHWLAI
A short description of data set [19]: Inhibition of phorbol ester site of PKC at 1 uM.
Data set [20] is described as follows: Inhibition of phencyclidine receptor at 1 uM.
Data set [21] can be described thus: Selectivity for human glucocorticoid receptor over ERalpha.
Data set [22] in a line: Selectivity for human glucocorticoid receptor over ERbeta.
The nature of data set [23]: Selectivity for human glucocorticoid receptor over progesterone receptor.
Data set [24] is described as follows: Selectivity for human glucocorticoid receptor over androgen receptor.
For data set [25], the target named is Beta-1 adrenergic receptor (Homo sapiens) (UniProt P08588). In words: Inhibition of adrenergic beta-1 receptor at 1 uM.
Chain of Beta-1 adrenergic receptor (Homo sapiens) (P08588 whole entry, looked up): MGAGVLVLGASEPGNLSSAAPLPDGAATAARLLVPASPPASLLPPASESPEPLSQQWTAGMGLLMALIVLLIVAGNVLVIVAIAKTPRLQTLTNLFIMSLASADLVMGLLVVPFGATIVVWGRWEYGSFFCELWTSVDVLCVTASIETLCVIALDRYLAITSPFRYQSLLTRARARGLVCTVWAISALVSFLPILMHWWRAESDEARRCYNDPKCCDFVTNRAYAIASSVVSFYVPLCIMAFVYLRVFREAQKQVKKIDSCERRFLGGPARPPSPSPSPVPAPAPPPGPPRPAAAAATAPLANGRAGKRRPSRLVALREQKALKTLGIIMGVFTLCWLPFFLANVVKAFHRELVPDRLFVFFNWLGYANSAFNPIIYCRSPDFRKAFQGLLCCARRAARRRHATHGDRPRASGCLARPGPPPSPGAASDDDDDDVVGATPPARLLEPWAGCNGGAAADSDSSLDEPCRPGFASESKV
Data set [26] addresses T3, Adenosine receptor A1 (Homo sapiens) (UniProt P30542).
T3 sequence (whole entry): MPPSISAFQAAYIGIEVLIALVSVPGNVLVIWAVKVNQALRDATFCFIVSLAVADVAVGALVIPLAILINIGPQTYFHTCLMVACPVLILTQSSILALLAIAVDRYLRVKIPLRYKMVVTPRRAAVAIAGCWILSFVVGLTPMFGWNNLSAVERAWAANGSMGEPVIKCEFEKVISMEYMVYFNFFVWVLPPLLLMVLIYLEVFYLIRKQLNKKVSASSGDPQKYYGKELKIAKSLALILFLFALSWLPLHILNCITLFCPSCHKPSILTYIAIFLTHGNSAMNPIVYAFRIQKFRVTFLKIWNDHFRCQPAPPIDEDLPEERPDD
In words: Inhibition of adenosine A1 receptor at 1 uM.

Data set [27] has as its target Adenosine receptor A2a (Homo sapiens) (UniProt P29274). In words: Inhibition of adenosine A2A receptor at 1 uM.
Data set [28] deals with T4, Alpha-1A adrenergic receptor (Homo sapiens) (UniProt P35348).
T4 sequence (whole entry): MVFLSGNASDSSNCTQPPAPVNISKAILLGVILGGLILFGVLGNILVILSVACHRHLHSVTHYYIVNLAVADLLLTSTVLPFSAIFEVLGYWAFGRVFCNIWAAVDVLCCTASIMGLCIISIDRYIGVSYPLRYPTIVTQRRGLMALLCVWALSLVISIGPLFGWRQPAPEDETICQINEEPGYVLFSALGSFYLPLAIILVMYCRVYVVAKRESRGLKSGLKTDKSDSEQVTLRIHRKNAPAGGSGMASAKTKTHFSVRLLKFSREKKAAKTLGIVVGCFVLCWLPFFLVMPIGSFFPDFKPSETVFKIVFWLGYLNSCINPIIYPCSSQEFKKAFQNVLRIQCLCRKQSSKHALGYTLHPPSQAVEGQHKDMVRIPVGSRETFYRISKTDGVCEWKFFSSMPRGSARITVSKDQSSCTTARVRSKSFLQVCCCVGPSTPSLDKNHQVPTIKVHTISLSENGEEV
Kind of data set: Inhibition of adrenergic alpha1A receptor at 1 uM.

Data set [29] has as its target T5, Alpha-1B adrenergic receptor (Homo sapiens) (UniProt P35368).
T5 sequence (whole entry): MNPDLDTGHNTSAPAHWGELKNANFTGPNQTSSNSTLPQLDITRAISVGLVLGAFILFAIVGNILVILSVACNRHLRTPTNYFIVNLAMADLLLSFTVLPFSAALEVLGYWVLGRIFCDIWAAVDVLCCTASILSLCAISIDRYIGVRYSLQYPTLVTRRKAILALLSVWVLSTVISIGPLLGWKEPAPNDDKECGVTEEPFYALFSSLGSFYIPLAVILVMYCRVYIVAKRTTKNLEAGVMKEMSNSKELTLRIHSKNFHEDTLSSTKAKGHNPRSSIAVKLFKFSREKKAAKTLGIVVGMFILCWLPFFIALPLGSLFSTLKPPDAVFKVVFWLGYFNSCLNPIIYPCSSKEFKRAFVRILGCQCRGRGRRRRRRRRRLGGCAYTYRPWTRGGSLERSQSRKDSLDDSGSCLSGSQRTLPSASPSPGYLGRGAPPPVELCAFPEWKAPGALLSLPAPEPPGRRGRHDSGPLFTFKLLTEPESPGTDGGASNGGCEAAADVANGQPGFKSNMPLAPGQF
Kind of data set: Inhibition of adrenergic Alpha-1B receptor at 1 uM.

Data set [30] has as its target T6, Alpha-2A adrenergic receptor (Homo sapiens) (UniProt P08913).
T6 sequence (whole entry): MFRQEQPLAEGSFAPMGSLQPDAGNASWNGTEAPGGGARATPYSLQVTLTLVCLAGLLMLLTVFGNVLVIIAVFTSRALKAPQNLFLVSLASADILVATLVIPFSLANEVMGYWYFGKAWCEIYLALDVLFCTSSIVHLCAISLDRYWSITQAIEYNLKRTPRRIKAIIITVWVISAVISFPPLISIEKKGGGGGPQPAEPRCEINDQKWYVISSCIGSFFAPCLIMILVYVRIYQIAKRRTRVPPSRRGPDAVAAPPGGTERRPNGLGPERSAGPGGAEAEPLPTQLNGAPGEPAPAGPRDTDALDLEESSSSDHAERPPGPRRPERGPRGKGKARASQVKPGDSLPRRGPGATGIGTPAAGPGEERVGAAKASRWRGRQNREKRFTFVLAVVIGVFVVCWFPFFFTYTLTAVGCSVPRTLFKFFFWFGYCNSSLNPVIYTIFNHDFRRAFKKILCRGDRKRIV
Kind of data set: Inhibition of adrenergic alpha2A receptor at 1 uM.

For data set [31], the target named is Beta-2 adrenergic receptor (Homo sapiens) (UniProt P07550). In words: Inhibition of adrenergic beta2 receptor at 1 uM.
Chain of Beta-2 adrenergic receptor (Homo sapiens) (P07550 whole entry, looked up): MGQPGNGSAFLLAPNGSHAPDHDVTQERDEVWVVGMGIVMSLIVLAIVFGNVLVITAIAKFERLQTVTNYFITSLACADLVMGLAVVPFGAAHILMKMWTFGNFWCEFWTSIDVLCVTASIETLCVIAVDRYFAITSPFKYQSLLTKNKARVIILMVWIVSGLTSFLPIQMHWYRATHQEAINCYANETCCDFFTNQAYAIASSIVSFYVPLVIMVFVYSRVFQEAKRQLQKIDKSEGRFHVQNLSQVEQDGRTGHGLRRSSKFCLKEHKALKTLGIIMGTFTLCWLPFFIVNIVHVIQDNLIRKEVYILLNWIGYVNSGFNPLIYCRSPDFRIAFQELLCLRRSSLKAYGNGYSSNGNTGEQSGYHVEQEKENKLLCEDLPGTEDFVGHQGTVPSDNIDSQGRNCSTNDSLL
Data set [32] in a line: Inhibition of calcium channel L type dihydropyridine binding site at 1 uM.
Data set [33] has as its target D(1A) dopamine receptor (Homo sapiens) (UniProt P21728). In words: Inhibition of dopamine D1 receptor at 1 uM.
The target of data set [34] is D(2) dopamine receptor (Homo sapiens) (UniProt P14416). In words: Inhibition of dopamine D2S receptor at 1 uM.
Chain of D(2) dopamine receptor (Homo sapiens) (P14416 whole entry): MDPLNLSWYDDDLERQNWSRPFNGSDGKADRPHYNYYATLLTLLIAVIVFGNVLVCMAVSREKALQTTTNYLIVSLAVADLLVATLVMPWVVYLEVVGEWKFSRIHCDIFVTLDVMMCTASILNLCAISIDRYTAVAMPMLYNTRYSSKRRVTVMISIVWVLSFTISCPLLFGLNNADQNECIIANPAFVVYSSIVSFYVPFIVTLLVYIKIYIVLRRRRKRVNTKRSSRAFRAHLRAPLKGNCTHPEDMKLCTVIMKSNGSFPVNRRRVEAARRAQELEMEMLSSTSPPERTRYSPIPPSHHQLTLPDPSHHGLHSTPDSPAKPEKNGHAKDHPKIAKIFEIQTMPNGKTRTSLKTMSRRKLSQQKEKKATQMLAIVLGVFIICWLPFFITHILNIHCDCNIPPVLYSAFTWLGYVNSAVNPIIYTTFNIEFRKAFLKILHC
The nature of data set [35]: Inhibition of GABAA receptor agonist site at 1 uM. Format: functional.
Data set [36] in a line: Inhibition of central benzodiazepine receptor at 1 uM.
Another data set has as its target hERG (KCNH2) (Homo sapiens, UniProt Q12809). Kind of data set: Inhibition of human ERG at 1 uM.
Data set [37] addresses Voltage-gated inwardly rectifying potassium channel KCNH2 (Homo sapiens, UniProt Q12809). Kind of data set: Inhibition of human ERG by patch clamp method.

Chain of Mu-type opioid receptor (Homo sapiens) (P35372 whole entry): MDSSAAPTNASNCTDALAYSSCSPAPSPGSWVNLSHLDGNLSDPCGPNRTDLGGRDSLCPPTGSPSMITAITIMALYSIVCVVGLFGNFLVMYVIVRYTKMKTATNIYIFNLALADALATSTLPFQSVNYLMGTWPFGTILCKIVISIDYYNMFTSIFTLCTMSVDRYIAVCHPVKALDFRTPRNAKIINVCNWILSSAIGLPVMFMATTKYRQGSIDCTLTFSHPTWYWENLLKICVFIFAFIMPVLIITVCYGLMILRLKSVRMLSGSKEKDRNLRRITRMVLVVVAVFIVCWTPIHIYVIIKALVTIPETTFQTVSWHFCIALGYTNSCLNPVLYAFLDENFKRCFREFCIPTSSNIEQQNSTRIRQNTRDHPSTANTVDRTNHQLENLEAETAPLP
Chain of Adenosine receptor A2a (Homo sapiens) (P29274 whole entry): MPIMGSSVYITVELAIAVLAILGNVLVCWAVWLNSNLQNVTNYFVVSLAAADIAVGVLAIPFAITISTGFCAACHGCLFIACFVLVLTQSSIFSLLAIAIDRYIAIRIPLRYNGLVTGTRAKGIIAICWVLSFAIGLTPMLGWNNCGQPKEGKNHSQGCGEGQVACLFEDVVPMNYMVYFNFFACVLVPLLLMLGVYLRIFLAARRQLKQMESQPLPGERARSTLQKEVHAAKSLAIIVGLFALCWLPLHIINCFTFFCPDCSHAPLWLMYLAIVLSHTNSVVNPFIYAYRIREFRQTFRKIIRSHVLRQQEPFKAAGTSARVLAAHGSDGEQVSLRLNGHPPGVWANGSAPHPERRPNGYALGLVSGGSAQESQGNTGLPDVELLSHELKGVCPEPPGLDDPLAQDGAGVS
Chain of D(1A) dopamine receptor (Homo sapiens) (P21728 whole entry): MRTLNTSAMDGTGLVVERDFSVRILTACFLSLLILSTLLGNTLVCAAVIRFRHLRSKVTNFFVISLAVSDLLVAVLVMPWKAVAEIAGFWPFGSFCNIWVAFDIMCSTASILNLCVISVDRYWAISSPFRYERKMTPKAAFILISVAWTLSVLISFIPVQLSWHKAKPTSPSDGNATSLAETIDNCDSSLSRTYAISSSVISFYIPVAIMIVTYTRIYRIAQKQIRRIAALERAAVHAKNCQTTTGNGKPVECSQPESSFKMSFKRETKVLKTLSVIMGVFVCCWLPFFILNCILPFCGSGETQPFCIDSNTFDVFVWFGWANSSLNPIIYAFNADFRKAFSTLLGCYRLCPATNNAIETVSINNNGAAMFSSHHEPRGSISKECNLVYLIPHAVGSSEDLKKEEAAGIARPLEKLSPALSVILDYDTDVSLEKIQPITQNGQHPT

For `OC(c1ccc(F)c(Cl)c1)(c1ccc2c(cnn2-c2ccc(F)cc2)c1)C(F)(F)F` (single isomer, unassigned; (-)) [1-(3-CHLORO-4-FLUOROPHENYL)-2,2,2-TRIFLUORO-1-(1-(4-FLUOROPHENYL)-1H-INDAZOL-5-YL)ETHANOL (ENANTIOMERIC MIX)], the figures for the EC50 on Glucocorticoid receptor [1] and at Glucocorticoid receptor [2] (read-out: EC50) were 93 nM and 1100 nM, respectively. For the same compound, the IC50 at Glucocorticoid receptor [3] amounted to 49 nM.

For `N#Cc1cc(C(O)(c2ccc3c(cnn3-c3ccc(F)cc3)c2)C(F)(F)F)ccc1F` (single isomer, unassigned; (-)) [listing 1 of 2 here], the inhibition in [4], in data set [5], in [6], in [7], in data set [8] and in data set [9] was less than 50% each time. The inhibition in data set [10], in [11], in data set [12], in data set [13], in [14] and in data set [15] was less than 50% each time. Moreover, the inhibition in [16], in data set [17], in [18], in data set [19], in data set [20] and in data set [25] was less than 50% throughout. In addition, the inhibition in data set [26], in data set [27], in data set [28], in [29], in data set [30] and in data set [31] was less than 50% each time. Moreover, the inhibition in data set [32], in data set [33], in [34], in [35] and in data set [36] was less than 50% each time. The Ratio in data set [21], in data set [22], in data set [23] and in data set [24] was greater than 1000 in each case.

Consider `N#Cc1cc(C(O)(c2ccc3c(cnn3-c3ccc(F)cc3)c2)C(F)(F)F)ccc1F` (single isomer, unassigned; (-)) [listing 2 of 2 here], for which the inhibition at 1 µM on hERG (KCNH2) is less than 50%. The EC50 at Glucocorticoid receptor [1] is 112 nM; on Glucocorticoid receptor [2] (mda-kb2), “Not Active”. Also, the half-maximal inhibitory concentration (IC50) in [37] was greater than 10000 nM; at Glucocorticoid receptor [3] it was 54 nM.

Consider `OC(c1ccc(F)c(Cl)c1)(c1ccc2c(cnn2-c2ccc(F)cc2)c1)C(F)(F)F` (single isomer, unassigned; (-)), for which the inhibition in data set [4], in [5], in data set [6], in data set [7], in data set [8] and in [9] was less than 50% in each case. In addition, the inhibition in data set [10], in data set [11], in data set [12], in data set [13], in [14] and in [15] was less than 50% each time. The inhibition in data set [16], in [17], in [18], in data set [19], in [20] and in data set [25] was less than 50% each time. In addition, the inhibition in data set [26], in [27], in data set [28], in data set [29], in data set [30] and in data set [31] was less than 50% each time. Also, the inhibition in data set [32], in data set [33], in data set [34], in data set [35] and in [36] was less than 50% each time.

The record behind these values is ChEMBL document CHEMBL1157802, “5-Functionalized indazoles as glucocorticoid receptor agonists” (Bioorg Med Chem Lett, 2010).
